Reference: ChEMBL document CHEMBL1201861, “Genomics of Drug Sensitity in Cancer screening data, Wellcome Trust Sanger Institute”

Experiments:
DBTRG-05MG = assay: cells; assay type: functional, cell-based; details: Homo sapiens;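 further: cell viability assay measuring growth inhibition of human DBTRG-05MG cells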
Description: SANGER: Inhibition of human DBTRG-05MG cell growth in a cell viability assay.

D-392MG = assay: cells; assay type: functional, cell-based; details: Homo sapiens
FaDu = assay: cells; assay type: functional, cell-based; details: Homo sapiens;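 further: cell viability readout of growth inhibition in FaDu cells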
Description: SANGER: Inhibition of human FADU cell growth in a cell viability assay.

SK-MEL-30 = assay: cells; assay type: functional, cell-based; details: Homo sapiens;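 further: growth inhibition of SK-MEL-30 cells, determined with a cell viability assay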
Description: SANGER: Inhibition of human SK-MEL-30 cell growth in a cell viability assay.

Hs-578T = assay: cells; assay type: functional, cell-based; details: Homo sapiens
Description: SANGER: Inhibition of human Hs-578-T cell growth in a cell viability assay.

EFO-21 = assay: cells; assay type: functional, cell-based; details: Homo sapiens;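 further: growth inhibition of EFO-21 cells measured with a viability assay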
Description: SANGER: Inhibition of human EFO-21 cell growth in a cell viability assay.

SK-MEL3 = assay: cells; assay type: functional, cell-based, SK-MEL-3; details: Homo sapiens;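 further: growth inhibition of human SK-MEL-3 cells, read out with a cell viability assay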
Description: SANGER: Inhibition of human SK-MEL-3 cell growth in a cell viability assay.

MDA-MB-361 = assay: cells; assay type: functional, cell-based; details: Homo sapiens
T98G = assay: cells; assay type: functional, cell-based; details: Homo sapiens;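 further: growth inhibition of T98G cells, read out by a cell viability assay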
Description: SANGER: Inhibition of human T98G cell growth in a cell viability assay.

C3A = assay: cells; assay type: functional, cell-based; details: Homo sapiens;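 further: growth inhibition of C3A human cells, quantified with a cell viability readout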
Description: SANGER: Inhibition of human C3A cell growth in a cell viability assay.

HPAF-II = assay: cells; assay type: functional, cell-based; details: Homo sapiens;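 further: growth inhibition of HPAF-II cells, read out with a cell viability assay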
Description: SANGER: Inhibition of human HPAF-II cell growth in a cell viability assay.

LCLC-103H cell line = assay: cells; assay type: functional, cell-based; details: Homo sapiens
Description: SANGER: Inhibition of human LCLC-103H cell growth in a cell viability assay.

HT-29 = assay: cells; assay type: functional, cell-based; details: Homo sapiens;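 further: growth inhibition of human HT-29 cells, read out by a cell viability assay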
Description: SANGER: Inhibition of human HT-29 cell growth in a cell viability assay.

PC-14 = assay: cells; assay type: functional, cell-based; details: Homo sapiens;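 further: cell viability assay measuring inhibition of PC-14 cell growth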
Description: SANGER: Inhibition of human PC-14 cell growth in a cell viability assay.

MKN-28 = assay: cells; assay type: functional, cell-based; details: Homo sapiens;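 further: cell viability assay read-out, IC50 reflects suppression of growth of human MKN-28 cells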
Description: SANGER: Inhibition of human MKN28 cell growth in a cell viability assay.

NCI-H1703 = assay: cells; assay type: functional, cell-based; details: Homo sapiens;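 further: growth inhibition of NCI-H1703 cells, read out via a cell viability assay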
Description: SANGER: Inhibition of human NCI-H1703 cell growth in a cell viability assay.

C-33-A = assay: cells; assay type: functional, cell-based; details: Homo sapiens;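 further: cell viability assay measuring growth inhibition of C-33-A cells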
Description: SANGER: Inhibition of human C-33-A cell growth in a cell viability assay.

NCI-H2009 = assay: cells; assay type: functional, cell-based; details: Homo sapiens;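 further: cell viability assay measuring inhibition of NCI-H2009 cell growth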
Description: SANGER: Inhibition of human NCI-H2009 cell growth in a cell viability assay.

SAOS-2 = assay: cells; assay type: functional, cell-based; details: Homo sapiens;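 further: growth inhibition of human Saos-2 cells determined by a cell viability assay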
Description: SANGER: Inhibition of human Saos-2 cell growth in a cell viability assay.

EFM-19 = assay: cells; assay type: functional, cell-based; details: Homo sapiens;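 further: growth inhibition of human EFM-19 cells, measured in a cell viability assay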
Description: SANGER: Inhibition of human EFM-19 cell growth in a cell viability assay.

KYSE-450 = assay: cells; assay type: functional, cell-based; details: Homo sapiens;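 further: cell growth inhibition measured by a viability assay in human KYSE-450 cells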
Description: SANGER: Inhibition of human KYSE-450 cell growth in a cell viability assay.

Ca-Ski = assay: cells; assay type: functional, cell-based; details: Homo sapiens;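 further: cell viability assay measuring inhibition of Ca-Ski cell growth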
Description: SANGER: Inhibition of human Ca-Ski cell growth in a cell viability assay.

HOP-92 = assay: cells; assay type: functional, cell-based; details: Homo sapiens;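 further: cell viability readout, with IC50 reflecting inhibition of HOP-92 cell growth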
Description: SANGER: Inhibition of human HOP-92 cell growth in a cell viability assay.

MIA PaCa-2 = assay: cells; assay type: functional, cell-based; details: Homo sapiens;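 further: growth inhibition of MIA PaCa-2 cells, read out with a cell viability assay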
Description: SANGER: Inhibition of human MIA-PaCa-2 cell growth in a cell viability assay.

U2OS = assay: cells; assay type: functional, cell-based, U-2-OS; details: Homo sapiens;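 further: growth inhibition of human U-2-OS cells, determined with a cell viability assay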
Description: SANGER: Inhibition of human U-2-OS cell growth in a cell viability assay.

COLO-792 = assay: cells; assay type: functional, cell-based; details: Homo sapiens
Description: SANGER: Inhibition of human COLO-792 cell growth in a cell viability assay.

DOK = assay: cells; assay type: functional, cell-based; details: Homo sapiens;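 further: cell viability assay read-out, values reflect inhibition of cell growth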
Description: SANGER: Inhibition of human DOK cell growth in a cell viability assay.

SW780 = assay: cells; assay type: functional, cell-based; details: Homo sapiens;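 further: growth inhibition of the cells, read out with a cell viability assay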
Description: SANGER: Inhibition of human SW780 cell growth in a cell viability assay.

SW756 = assay: cells; assay type: functional, cell-based; details: Homo sapiens;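 further: growth inhibition of human SW756 cells, read out with a cell viability assay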
Description: SANGER: Inhibition of human SW756 cell growth in a cell viability assay.

NCI-H1693 = assay: cells; assay type: functional, cell-based; details: Homo sapiens;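 further: growth inhibition of the human cell line, read out with a cell viability assay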
Description: SANGER: Inhibition of human NCI-H1693 cell growth in a cell viability assay.

8305C = assay: cells; assay type: functional, cell-based; details: Homo sapiens
Description: SANGER: Inhibition of human 8305C cell growth in a cell viability assay.

CAL-85-1 = assay: cells; assay type: functional, cell-based; details: Homo sapiens;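 further: growth inhibition of human CAL-85-1 cells, read out with a cell viability assay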
Description: SANGER: Inhibition of human CAL-85-1 cell growth in a cell viability assay.

KU-19-19 = assay: cells; assay type: functional, cell-based; details: Homo sapiens
Description: SANGER: Inhibition of human KU-19-19 cell growth in a cell viability assay.

HCC1569 = assay: cells; assay type: functional, cell-based; details: Homo sapiens;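 further: growth inhibition of human HCC1569 cells, read out with a cell viability assay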
Description: SANGER: Inhibition of human HCC1569 cell growth in a cell viability assay.

KYSE-180 = assay: cells; assay type: functional, cell-based; details: Homo sapiens;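 further: growth inhibition of KYSE-180 cells, read out with a cell viability assay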
Description: SANGER: Inhibition of human KYSE-180 cell growth in a cell viability assay.

NCI-H1437 = assay: cells; assay type: functional, cell-based; details: Homo sapiens;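 further: growth inhibition of human NCI-H1437 cells, read out by a cell viability assay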
Description: SANGER: Inhibition of human NCI-H1437 cell growth in a cell viability assay.

KP-4 = assay: cells; assay type: functional, cell-based; details: Homo sapiens;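 further: human KP-4 cells, with growth inhibition read out through a cell viability assay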
Description: SANGER: Inhibition of human KP-4 cell growth in a cell viability assay.

Huh-7 = assay: cells; assay type: functional, cell-based; details: Homo sapiens;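 further: HuH-7 cell growth inhibition, read out with a cell viability assay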
Description: SANGER: Inhibition of human HuH-7 cell growth in a cell viability assay.

S-117 = assay: cells; assay type: functional, cell-based; details: Homo sapiens
Description: SANGER: Inhibition of human S-117 cell growth in a cell viability assay.

COR-L23 = assay: cells; assay type: functional, cell-based; details: Homo sapiens;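 further: cell viability assay measuring how strongly compounds suppress growth of COR-L23 cells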
Description: SANGER: Inhibition of human COR-L23 cell growth in a cell viability assay.

MEL-HO = assay: cells; assay type: functional, cell-based; details: Homo sapiens
Description: SANGER: Inhibition of human MEL-HO cell growth in a cell viability assay.

UACC-893 = assay: cells; assay type: functional, cell-based; details: Homo sapiens
Description: SANGER: Inhibition of human UACC-893 cell growth in a cell viability assay.

M14 = assay: cells; assay type: functional, cell-based; details: Homo sapiens;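 further: growth inhibition of M14 cells, read out with a cell viability assay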
Description: SANGER: Inhibition of human M14 cell growth in a cell viability assay.

NCI-H1573 = assay: cells; assay type: functional, cell-based; details: Homo sapiens;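 further: growth inhibition of NCI-H1573 cells, read out with a cell viability assay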
Description: SANGER: Inhibition of human NCI-H1573 cell growth in a cell viability assay.

SW626 = assay: cells; assay type: functional, cell-based; details: Homo sapiens;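 further: growth inhibition of SW626 cells, measured with a cell viability assay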
Description: SANGER: Inhibition of human SW626 cell growth in a cell viability assay.

RO82-W-1 = assay: cells; assay type: functional, cell-based; details: Homo sapiens;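 further: growth inhibition of human RO82-W-1 cells, measured with a cell viability assay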
Description: SANGER: Inhibition of human RO82-W-1 cell growth in a cell viability assay.

HN = assay: cells; assay type: functional, cell-based; details: Homo sapiens
Description: SANGER: Inhibition of human HN cell growth in a cell viability assay.

Daoy = assay: cells; assay type: functional, cell-based; details: Homo sapiens;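 further: daoy cell growth inhibition, read out as cell viability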
Description: SANGER: Inhibition of human Daoy cell growth in a cell viability assay.

LU-99A = assay: cells; assay type: functional, cell-based; details: Homo sapiens;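 further: growth inhibition of LU-99A cells, read out with a cell viability assay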
Description: SANGER: Inhibition of human LU-99A cell growth in a cell viability assay.

HEC-1 = assay: cells; assay type: functional, cell-based; details: Homo sapiens;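 further: growth inhibition of the cell line, read out with a cell viability assay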
Description: SANGER: Inhibition of human HEC-1 cell growth in a cell viability assay.

NCI-H1993 = assay: cells; assay type: functional, cell-based; details: Homo sapiens;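 further: growth inhibition of the cancer cell line, assessed with a cell viability assay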
Description: SANGER: Inhibition of human NCI-H1993 cell growth in a cell viability assay.

786-0 = assay: cells; assay type: functional, cell-based; details: Homo sapiens
Description: SANGER: Inhibition of human 786-0 cell growth in a cell viability assay.

Panc1005 = assay: cells; assay type: functional, cell-based; details: Homo sapiens;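 further: growth inhibition of human PANC-10-05 cells, measured by a cell viability assay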
Description: SANGER: Inhibition of human PANC-10-05 cell growth in a cell viability assay.

NCI-H1963 = assay: cells; assay type: functional, cell-based, Homo sapiens; details: Homo sapiens, NCI-H1963;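 further: cell growth inhibition of the human line, determined with a cell viability assay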
Description: SANGER: Inhibition of human NCI-H1963 cell growth in a cell viability assay.

TE-15 = assay: cells; assay type: functional, cell-based, Homo sapiens; details: Homo sapiens, TE-15;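 further: cell viability readout of growth inhibition in TE-15 cells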
Description: SANGER: Inhibition of human TE-15 cell growth in a cell viability assay.

NCI-H748 = assay: cells; assay type: functional, cell-based, Homo sapiens; details: Homo sapiens, NCI-H748;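 further: growth inhibition of NCI-H748 cells, measured by a cell viability assay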
Description: SANGER: Inhibition of human NCI-H748 cell growth in a cell viability assay.

ST486 = assay: SANGER: Inhibition of human ST486 cell growth in a cell viability assay.; assay type: functional, cell-based; details: Homo sapiens, ST486
EVSA-T = assay: cells; assay type: functional, cell-based, Homo sapiens; details: Homo sapiens, EVSA-T;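 further: growth inhibition of EVSA-T cells, read out with a cell viability assay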
Description: SANGER: Inhibition of human EVSA-T cell growth in a cell viability assay.

RL = assay: cells; assay type: functional, cell-based, Homo sapiens; details: Homo sapiens, RL
Description: SANGER: Inhibition of human RL cell growth in a cell viability assay.

JIYOYE = assay: cells; assay type: functional, cell-based, Homo sapiens; details: Homo sapiens, JIYOYE
Description: SANGER: Inhibition of human JiyoyeP-2003 cell growth in a cell viability assay.

CPC-N = assay: cells; assay type: functional, cell-based, Homo sapiens; details: Homo sapiens, CPC-N;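 further: growth inhibition of CPC-N cells, with a cell viability assay as the readout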
Description: SANGER: Inhibition of human CPC-N cell growth in a cell viability assay.

EW-24 = assay: cells; assay type: functional, cell-based, Homo sapiens; details: Homo sapiens, EW-24;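 further: human EW-24 cancer cell line, growth inhibition read out via a cell viability assay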
Description: SANGER: Inhibition of human EW-24 cell growth in a cell viability assay.

Cc1ccc(-n2nc(C(C)(C)C)cc2NC(=O)Nc2ccc(OCCN3CCOCC3)c3ccccc23)cc1 [DORAMAPIMOD]
IC50 (DBTRG-05MG): > 10000 nM | IC50 (D-392MG): > 10000 nM | IC50 (FaDu): > 10000 nM | IC50 (SK-MEL-30): > 10000 nM | IC50 (Hs-578T): > 10000 nM | IC50 (EFO-21): > 10000 nM | IC50 (SK-MEL3): > 10000 nM | IC50 (MDA-MB-361): > 10000 nM | IC50 (T98G): > 10000 nM | IC50 (C3A): > 10000 nM | IC50 (HPAF-II): > 10000 nM | IC50 (LCLC-103H cell line): > 10000 nM | IC50 (HT-29): > 10000 nM | IC50 (PC-14): > 10000 nM | IC50 (MKN-28): > 10000 nM | IC50 (NCI-H1703): > 10000 nM | IC50 (C-33-A): > 10000 nM | IC50 (NCI-H2009): > 10000 nM | IC50 (SAOS-2): > 10000 nM | IC50 (EFM-19): > 10000 nM | IC50 (KYSE-450): > 10000 nM | IC50 (Ca-Ski): > 10000 nM | IC50 (HOP-92): > 10000 nM | IC50 (MIA PaCa-2): > 10000 nM | IC50 (U2OS): > 10000 nM | IC50 (COLO-792): > 10000 nM | IC50 (DOK): > 10000 nM | IC50 (SW780): > 10000 nM | IC50 (SW756): > 10000 nM | IC50 (NCI-H1693): > 10000 nM | IC50 (8305C): > 10000 nM | IC50 (CAL-85-1): > 10000 nM | IC50 (KU-19-19): > 10000 nM | IC50 (HCC1569): > 10000 nM | IC50 (KYSE-180): > 10000 nM | IC50 (NCI-H1437): > 10000 nM | IC50 (KP-4): > 10000 nM | IC50 (Huh-7): > 10000 nM | IC50 (S-117): > 10000 nM | IC50 (COR-L23): > 10000 nM | IC50 (MEL-HO): > 10000 nM | IC50 (UACC-893): > 10000 nM | IC50 (M14): > 10000 nM | IC50 (NCI-H1573): > 10000 nM | IC50 (SW626): > 10000 nM | IC50 (RO82-W-1): > 10000 nM | IC50 (HN): > 10000 nM | IC50 (Daoy): > 10000 nM | IC50 (LU-99A): > 10000 nM | IC50 (HEC-1): > 10000 nM | IC50 (NCI-H1993): > 10000 nM | IC50 (786-0): > 10000 nM | IC50 (Panc1005): > 10000 nM

Cc1ccc(C(=O)Nc2ccc(CN3CCN(C)CC3)c(C(F)(F)F)c2)cc1C#Cc1cnc2cccnn12 [PONATINIB]
IC50 (DBTRG-05MG): 381 nM | IC50 (D-392MG): 232 nM | IC50 (FaDu): > 512 nM | IC50 (SK-MEL-30): > 512 nM | IC50 (NCI-H1963): > 512 nM | IC50 (Hs-578T): > 512 nM | IC50 (EFO-21): 304 nM | IC50 (SK-MEL3): > 512 nM | IC50 (TE-15): 261 nM | IC50 (MDA-MB-361): > 512 nM | IC50 (T98G): 193 nM | IC50 (C3A): > 512 nM | IC50 (HPAF-II): > 512 nM | IC50 (LCLC-103H cell line): > 512 nM | IC50 (HT-29): > 512 nM | IC50 (PC-14): > 512 nM | IC50 (MKN-28): > 512 nM | IC50 (NCI-H1703): 196 nM | IC50 (C-33-A): > 512 nM | IC50 (NCI-H2009): > 512 nM | IC50 (SAOS-2): > 512 nM | IC50 (EFM-19): > 512 nM | IC50 (KYSE-450): 273 nM | IC50 (Ca-Ski): > 512 nM | IC50 (NCI-H748): > 512 nM | IC50 (HOP-92): > 512 nM | IC50 (MIA PaCa-2): > 512 nM | IC50 (ST486): > 512 nM | IC50 (U2OS): > 512 nM | IC50 (COLO-792): > 512 nM | IC50 (DOK): > 512 nM | IC50 (SW780): 423 nM | IC50 (EVSA-T): > 512 nM | IC50 (SW756): > 512 nM | IC50 (RL): > 512 nM | IC50 (NCI-H1693): > 512 nM | IC50 (8305C): 398 nM | IC50 (CAL-85-1): 179 nM | IC50 (KU-19-19): > 512 nM | IC50 (HCC1569): > 512 nM | IC50 (KYSE-180): 269 nM | IC50 (NCI-H1437): > 512 nM | IC50 (KP-4): > 512 nM | IC50 (JIYOYE): > 512 nM | IC50 (Huh-7): 278 nM | IC50 (S-117): > 512 nM | IC50 (COR-L23): > 512 nM | IC50 (MEL-HO): > 512 nM | IC50 (UACC-893): > 512 nM | IC50 (M14): > 512 nM | IC50 (SW626): > 512 nM | IC50 (RO82-W-1): > 512 nM | IC50 (HN): > 512 nM | IC50 (Daoy): > 512 nM | IC50 (CPC-N): > 512 nM | IC50 (LU-99A): > 512 nM | IC50 (EW-24): > 512 nM | IC50 (HEC-1): > 512 nM | IC50 (NCI-H1993): > 512 nM | IC50 (786-0): 262 nM | IC50 (Panc1005): > 512 nM
